PubChem BioAssay AID180 (DTP/NCI, 2004)
Values joined by “and” are separate entries in the source; they are usually repeats but may differ in a detail not shown here. Equal entries are not always repeated.

System: BDF1 mice, Adenocarcinoma 755 s.c., tumor weight T/C
Experiment: NCI In Vivo Anticancer Drug Screen. Data for tumor model Adenocarcinoma 755 (subcutaneous) in B6D2F1 (BDF1) mice
Settings: endpoint: mean tumor weight, higher = larger tumour
How it was run: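 Readout: T/C, i.e. treated-group measurement over vehicle-control measurement. Endpoint is survival or tumor size in tumor-bearing mice given compound.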

[1] = dose: 7.0 mg/kg/injection, schedule: Q01DX011 (ip), vehicle: methylcellulose (MC)
[2] = dose: 5.0 mg/kg/injection, schedule: Q01DX011 (ip), vehicle: methylcellulose (MC)
[3] = dose: 10.0 mg/kg/injection, schedule: Q01DX011 (ip), vehicle: methylcellulose (MC)
[4] = dose: 20.0 mg/kg/injection, schedule: Q01DX011 (ip), vehicle: methylcellulose (MC)
[5] = dose: 14.0 mg/kg/injection, schedule: Q01DX011 (ip), vehicle: methylcellulose (MC)
[6] = dose: 25.0 mg/kg/injection, schedule: Q01DX011 (ip), vehicle: carboxymethylcellulose (CMC)

In the case of `CCCCS(=O)(=O)OCCCCOS(=O)(=O)CCCC`, the T/C (dose: 45.0 mg/kg/injection, schedule: Q01DX011 (ip), vehicle: carboxymethylcellulose (CMC)) is reported as 108 % of control, the T/C (dose: 90.0 mg/kg/injection, schedule: Q01DX011 (ip), vehicle: carboxymethylcellulose (CMC)) is reported as 51 % of control and the T/C (dose: 180.0 mg/kg/injection, schedule: Q01DX011 (ip), vehicle: carboxymethylcellulose (CMC)) is reported as 41 % of control. The T/C (dose: 360.0 mg/kg/injection, schedule: Q01DX011 (ip), vehicle: carboxymethylcellulose (CMC)) was 16 % of control.
`Cn1c(N)cc(=O)[nH]c1=S` was tested, and the T/C (dose: 3.5 mg/kg/injection, schedule: Q01DX011 (ip), vehicle: methylcellulose (MC)) was 98 % of control, the T/C [1] was 40 % of control and the T/C (dose: 15.0 mg/kg/injection, schedule: Q01DX011 (ip), vehicle: methylcellulose (MC)) was 65 % of control. For the same compound, the T/C (dose: 30.0 mg/kg/injection, schedule: Q01DX011 (ip), vehicle: methylcellulose (MC)) was 79 % of control and the T/C (dose: 60.0 mg/kg/injection, schedule: Q01DX011 (ip), vehicle: methylcellulose (MC)) was 29 % of control.
With `CCCCSc1ncnc2c1ncn2C1CCCCO1` (stereo not given) the T/C (dose: 9.2 mg/kg/injection, schedule: Q01DX011 (ip), vehicle: carboxymethylcellulose (CMC)) was 78 % of control, the T/C (dose: 14.0 mg/kg/injection, schedule: Q01DX011 (ip), vehicle: carboxymethylcellulose (CMC)) was 58 % of control and the T/C (dose: 21.0 mg/kg/injection, schedule: Q01DX011 (ip), vehicle: carboxymethylcellulose (CMC)) was 35 % of control. For the same compound, the T/C (dose: 31.0 mg/kg/injection, schedule: Q01DX011 (ip), vehicle: carboxymethylcellulose (CMC)) was 17 % of control, the T/C (dose: 47.0 mg/kg/injection, schedule: Q01DX011 (ip), vehicle: carboxymethylcellulose (CMC)) was 21 % of control and the T/C (dose: 63.0 mg/kg/injection, schedule: Q01DX011 (ip), vehicle: carboxymethylcellulose (CMC)) was 11 % of control. The T/C (dose: 94.0 mg/kg/injection, schedule: Q01DX011 (ip), vehicle: carboxymethylcellulose (CMC)) was 8 % of control, the T/C (dose: 125.0 mg/kg/injection, schedule: Q01DX011 (ip), vehicle: carboxymethylcellulose (CMC)) was 9 % of control and the T/C (dose: 175.0 mg/kg/injection, schedule: Q01DX011 (ip), vehicle: carboxymethylcellulose (CMC)) was 12 % of control. The T/C (dose: 188.0 mg/kg/injection, schedule: Q01DX011 (ip), vehicle: carboxymethylcellulose (CMC)) was 2 % of control and the T/C (dose: 262.5 mg/kg/injection, schedule: Q01DX011 (ip), vehicle: carboxymethylcellulose (CMC)) was 14 % of control.
`Cn1c(=O)c2c(nc(C(O)(c3ccccc3)c3ccccc3)n2C)n(C)c1=O` was tested, and the T/C (dose: 40.0 mg/kg/injection, schedule: Q01DX011 (ip), vehicle: methylcellulose (MC)) was 122 % of control and the T/C (dose: 75.0 mg/kg/injection, schedule: Q01DX011 (ip), vehicle: methylcellulose (MC)) was 66 % of control.
In the case of `CN(C)c1ccc(/C=C\c2ccnc3ccccc23)cc1`, the T/C (dose: 3.1 mg/kg/injection, schedule: Q01DX011 (ip), vehicle: water) is reported as 100 % of control, the T/C [2] is reported as 96 % of control and the T/C (dose: 6.25 mg/kg/injection, schedule: Q01DX011 (ip), vehicle: water) is reported as 97 % of control. The T/C [3] was 96 % of control, the T/C (dose: 12.5 mg/kg/injection, schedule: Q01DX011 (ip), vehicle: water) was 90 % of control and the T/C [4] was 86 % of control. For the same compound, the T/C (dose: 25.0 mg/kg/injection, schedule: Q01DX011 (ip), vehicle: water) was 81 % of control, the T/C (dose: 50.0 mg/kg/injection, schedule: Q01DX011 (ip), vehicle: water) was 55 % of control and the T/C (dose: 100.0 mg/kg/injection, schedule: Q01DX011 (ip), vehicle: water) was 64 % of control.
`Nc1nc(C(F)(F)F)c2ncn(Cc3ccccc3)c2n1` was tested, and the T/C (dose: 60.0 mg/kg/injection, schedule: Q01DX011 (ip), vehicle: carboxymethylcellulose (CMC)) was 92 % of control and the T/C (dose: 120.0 mg/kg/injection, schedule: Q01DX011 (ip), vehicle: carboxymethylcellulose (CMC)) was 123 % of control.
With `O=C(CCl)N1c2ccccc2Oc2cc3ccccc3cc21` the T/C (dose: 4.4 mg/kg/injection, schedule: Q01DX011 (ip), vehicle: methylcellulose (MC)) was 78 % of control, the T/C (dose: 6.6 mg/kg/injection, schedule: Q01DX011 (ip), vehicle: methylcellulose (MC)) was 62 % of control and the T/C [3] was 54 % of control. The T/C [5] was 45 % of control, the T/C (dose: 14.0 mg/kg/injection, schedule: Q01DX011 (ip), vehicle: other) was 120 % of control and the T/C (dose: 28.0 mg/kg/injection, schedule: Q01DX011 (ip), vehicle: methylcellulose (MC)) was 33 % of control. The T/C (dose: 28.0 mg/kg/injection, schedule: Q01DX011 (ip), vehicle: other) was 87 % of control, the T/C (dose: 56.0 mg/kg/injection, schedule: Q01DX011 (ip), vehicle: other) was 61 % of control and the T/C (dose: 112.0 mg/kg/injection, schedule: Q01DX011 (ip), vehicle: other) was 94 % of control.
For `CC(C)(CBr)C(=O)N1CCN(C(=O)C(C)(C)CBr)CC1`, the T/C [1] was 80 % of control and the T/C [5] was 56 % of control.
`COc1cc(C(=O)[O][Hg][CH2]C2CC(O)CC([CH2][Hg][O]C(=O)c3cc(OC)c(OC)c(OC)c3)O2)cc(OC)c1OC` (stereo not given) was tested, and the T/C [6] was 61 % of control.
`NC1C(O)C(O)C(Nc2ncnc3nc[nH]c23)OC1C(O)CO` (stereo not given) was tested, and the T/C (dose: 0.18 mg/kg/injection, schedule: Q## X000 (ip), vehicle: carboxymethylcellulose (CMC)) was 65 % of control, the T/C (dose: 0.35 mg/kg/injection, schedule: Q## X000 (ip), vehicle: carboxymethylcellulose (CMC)) was 65 % of control and the T/C (dose: 0.7 mg/kg/injection, schedule: Q## X000 (ip), vehicle: carboxymethylcellulose (CMC)) was 67 % of control. The T/C (dose: 1.35 mg/kg/injection, schedule: Q## X000 (ip), vehicle: carboxymethylcellulose (CMC)) was 107 % of control.
For `CC(C)CN(C)/N=N/c1nc[nH]c1C(N)=O`, the T/C [6] was 40 % of control and the T/C (dose: 37.5 mg/kg/injection, schedule: Q01DX011 (ip), vehicle: carboxymethylcellulose (CMC)) was 22 % of control.
`Cc1cnc(Cl)nc1Sc1nc(N)nc2nc[nH]c12` was tested, and the T/C (dose: 0.5 mg/kg/injection, schedule: Q01DX011 (ip), vehicle: methylcellulose (MC)) was 56 % of control, the T/C (dose: 0.75 mg/kg/injection, schedule: Q01DX011 (ip), vehicle: carboxymethylcellulose (CMC)) was 31 % of control and the T/C (dose: 1.0 mg/kg/injection, schedule: Q01DX011 (ip), vehicle: carboxymethylcellulose (CMC)) was 31 % of control and 38 % of control. The T/C (dose: 1.0 mg/kg/injection, schedule: Q01DX011 (ip), vehicle: methylcellulose (MC)) was 52 % of control, the T/C (dose: 1.5 mg/kg/injection, schedule: Q01DX011 (ip), vehicle: carboxymethylcellulose (CMC)) was 11 % of control and the T/C (dose: 3.0 mg/kg/injection, schedule: Q01DX011 (ip), vehicle: carboxymethylcellulose (CMC)) was 8 % of control and 11 % of control. For the same compound, the T/C (dose: 3.0 mg/kg/injection, schedule: Q01DX011 (ip), vehicle: methylcellulose (MC)) was 35 % of control and the T/C (dose: 6.0 mg/kg/injection, schedule: Q01DX011 (ip), vehicle: carboxymethylcellulose (CMC)) was 8 % of control.
With `O=C(CCBr)NCCCCCCNC(=O)CCBr` the T/C (dose: 56.0 mg/kg/injection, schedule: Q01DX011 (ip), vehicle: methylcellulose (MC)) was 114 % of control, the T/C (dose: 113.0 mg/kg/injection, schedule: Q01DX011 (ip), vehicle: methylcellulose (MC)) was 67 % of control and the T/C (dose: 225.0 mg/kg/injection, schedule: Q01DX011 (ip), vehicle: methylcellulose (MC)) was 114 % of control.
`[O-][N+](CCO)(CCO)c1ncnc2nc[nH]c12` was tested, and the T/C (dose: 25.0 mg/kg/injection, schedule: Q01DX011 (ip), vehicle: saline) was 121 % of control, the T/C (dose: 75.0 mg/kg/injection, schedule: Q01DX011 (ip), vehicle: saline) was 72 % of control and the T/C (dose: 225.0 mg/kg/injection, schedule: Q01DX011 (ip), vehicle: saline) was 82 % of control.
For `CCOc1nc(N)nc2nc[nH]c12`, the T/C (dose: 8.0 mg/kg/injection, schedule: Q01DX011 (ip), vehicle: methylcellulose (MC)) was 88 % of control, the T/C (dose: 16.0 mg/kg/injection, schedule: Q01DX011 (ip), vehicle: methylcellulose (MC)) was 55 % of control and the T/C (dose: 31.0 mg/kg/injection, schedule: Q01DX011 (ip), vehicle: methylcellulose (MC)) was 59 % of control.
In the case of `OCCN1CCN(CC/C=C2/c3ccccc3Sc3ccc(Cl)cc32)CC1`, the T/C (dose: 2.5 mg/kg/injection, schedule: Q01DX011 (ip), vehicle: methylcellulose (MC)) is reported as 90 % of control and 88 % of control, the T/C [2] is reported as 40 % of control and 42 % of control and the T/C [3] is reported as 32 % of control. For the same compound, the T/C [4] was 17 % of control.
In the case of `CCN(CC)P(=O)(N1CC1)N1CC1`, the T/C (dose: 0.5 mg/kg/injection, schedule: Q01DX011 (ip), vehicle: saline) is reported as 60 % of control, the T/C (dose: 1.0 mg/kg/injection, schedule: Q01DX011 (ip), vehicle: saline) is reported as 68 % of control and the T/C (dose: 2.0 mg/kg/injection, schedule: Q01DX011 (ip), vehicle: other) is reported as 50 % of control. The T/C (dose: 2.0 mg/kg/injection, schedule: Q01DX011 (ip), vehicle: saline) was 43 % of control and 47 % of control, the T/C (dose: 4.0 mg/kg/injection, schedule: Q01DX011 (ip), vehicle: other) was 26 % of control and the T/C (dose: 4.0 mg/kg/injection, schedule: Q01DX011 (ip), vehicle: saline) was 18 % of control and 39 % of control. For the same compound, the T/C (dose: 8.0 mg/kg/injection, schedule: Q01DX011 (ip), vehicle: other) was 14 % of control and the T/C (dose: 8.0 mg/kg/injection, schedule: Q01DX011 (ip), vehicle: saline) was 10 % of control.
